# Test results: the supplement of paper PMC6045584
# ± gives the standard deviation of the averaged measurements.
# Compound: COc1cccc2c1C(=O)c1c(O)c3c(c(O)c1C2=O)C[C@@](O)(C(=O)CO)C[C@@H]3O[C@H]1C[C@H](N)[C@H](O)[C@H](C)O1 [DOXORUBICIN]
# Experiment: surviving fraction relative to DMSO-only wells; higher = less growth inhibition
# Settings: 0.5 nM; exposure time: 5 days
# In short: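 Surviving fraction is CellTiter-Glo luminescence divided by the median of wells given DMSO only. For this, log-phase tumour cell lines went into 384-well plates at 250–500 cells per well and, 24 hours later, into five days of continuous inhibitor exposure at 0.5, 1, 5, 10, 50, 100, 500 and 1000 nM. Lines were screened three times and retained only if replicate Pearson r >0.7 and median Z' >0.3.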
row,Test System,surviving fraction
1,SUM149.B1*.S BREAST,1.03 ± 0.031
2,93VU HEADNECK,1.03 ± 0.063
3,LM7 BONE,0.95 ± 0.033
4,143B BONE,1 ± 0.018
5,SUM159 BREAST,1.1 ± 0.14
6,SUM149 BREAST,1.01 ± 0.013
7,MDAMB361 BREAST,0.794 ± 0.089
8,SAOS2 BONE,1.13 ± 0.038
9,ASKA SYNOVIAL,0.792 ± 0.014
10,HCC1395 BREAST,0.926 ± 0.18
11,HCC1954 BREAST,1.03 ± 0.19
12,CME SYNOVIAL,1.14 ± 0.094
13,VCAP PROSTATE,1.18 ± 0.094
14,YAMATO SYNOVIAL,1.1 ± 0.058
15,HCC202 BREAST,1.2 ± 0.18
16,HELA CERVIX,0.998 ± 0.055
17,SG27 HEADNECK,0.988 ± 0.057
18,CAL72 BONE,1.05 ± 0.041
19,MDAMB134 BREAST,0.865 ± 0.0028
20,C33A CERVIX,0.842 ± 0.066

row,Test System,surviving fraction
1,SKBR3 BREAST,0.804 ± 0.17
2,MHM BONE,0.992 ± 0.027
3,VP229 BREAST,1.18 ± 0.067
4,SYO1 SYNOVIAL,0.944 ± 0.065
5,ZR751 BREAST,1.12 ± 0.095
6,KPD BONE,1.06 ± 0.057
7,SIHA CERVIX,0.996 ± 0.084
8,DU4475 BREAST,0.818 ± 0.31
9,BT549 BREAST,1.07 ± 0.1
10,COLO320DM LARGE INTESTINE,1.07 ± 0.064
11,T47D BREAST,1.03 ± 0.03
12,H23 LUNG,1.01 ± 0.016
13,NCIH441 LUNG,1.04 ± 0.054
14,HCT15 LARGE INTESTINE,1.01 ± 0.016
15,SCC90 HEADNECK,0.967 ± 0.034
16,MDAMB453 BREAST,1.05 ± 0.045
17,MG63 BONE,1.02 ± 0.041
18,A549 LUNG,0.96 ± 0.032
19,MDAMB468 BREAST,0.897 ± 0.065

# Same assay, conditions: 1 nM; exposure time: 5 days
row,Test System,surviving fraction
1,SUM149.B1*.S BREAST,1.065 ± 0.0083
2,93VU HEADNECK,1.08 ± 0.11
3,LM7 BONE,1.05 ± 0.073
4,143B BONE,1.02 ± 0.0085
5,SUM159 BREAST,1.08 ± 0.11
6,SUM149 BREAST,0.961 ± 0.13
7,MDAMB361 BREAST,0.997 ± 0.12
8,SAOS2 BONE,1.1 ± 0.054
9,ASKA SYNOVIAL,0.5807 ± 0.0031
10,HCC1395 BREAST,1.11 ± 0.18
11,HCC1954 BREAST,0.955 ± 0.18
12,CME SYNOVIAL,0.998 ± 0.15
13,VCAP PROSTATE,0.982 ± 0.1
14,YAMATO SYNOVIAL,1.14 ± 0.058
15,HCC202 BREAST,1.26 ± 0.26
16,HELA CERVIX,1.03 ± 0.022
17,SG27 HEADNECK,0.967 ± 0.037
18,CAL72 BONE,0.743 ± 0.018
19,MDAMB134 BREAST,0.835 ± 0.098
20,C33A CERVIX,0.988 ± 0.068

row,Test System,surviving fraction
1,SKBR3 BREAST,0.871 ± 0.1
2,MHM BONE,1.03 ± 0.016
3,VP229 BREAST,1.11 ± 0.14
4,SYO1 SYNOVIAL,0.906 ± 0.017
5,ZR751 BREAST,1.08 ± 0.16
6,KPD BONE,0.963 ± 0.056
7,SIHA CERVIX,0.998 ± 0.08
8,DU4475 BREAST,1.23 ± 0.41
9,BT549 BREAST,1.03 ± 0.23
10,COLO320DM LARGE INTESTINE,1.13 ± 0.02
11,T47D BREAST,1 ± 0.038
12,H23 LUNG,1.03 ± 0.027
13,NCIH441 LUNG,1.06 ± 0.051
14,HCT15 LARGE INTESTINE,0.986 ± 0.044
15,SCC90 HEADNECK,0.956 ± 0.046
16,MDAMB453 BREAST,1.04 ± 0.065
17,MG63 BONE,1.04 ± 0.053
18,A549 LUNG,0.964 ± 0.039
19,MDAMB468 BREAST,0.931 ± 0.075

# Same assay, conditions: 5 nM; exposure time: 5 days
row,Test System,surviving fraction
1,SUM149.B1*.S BREAST,1.01 ± 0.043
2,93VU HEADNECK,1.12 ± 0.085
3,LM7 BONE,0.902 ± 0.051
4,143B BONE,0.957 ± 0.0099
5,SUM159 BREAST,1.05 ± 0.11
6,SUM149 BREAST,0.401 ± 0.056
7,MDAMB361 BREAST,0.906 ± 0.013
8,SAOS2 BONE,1.09 ± 0.043
9,ASKA SYNOVIAL,0.28 ± 0.0042
10,HCC1395 BREAST,1.03 ± 0.036
11,HCC1954 BREAST,0.829 ± 0.015
12,CME SYNOVIAL,0.567 ± 0.12
13,VCAP PROSTATE,1.1 ± 0.073
14,YAMATO SYNOVIAL,0.963 ± 0.069
15,HCC202 BREAST,0.896 ± 0.058
16,HELA CERVIX,0.897 ± 0.029
17,SG27 HEADNECK,1.09 ± 0.094
18,CAL72 BONE,1.01 ± 0.033
19,MDAMB134 BREAST,1.03 ± 0.021
20,C33A CERVIX,0.779 ± 0.055

row,Test System,surviving fraction
1,SKBR3 BREAST,0.852 ± 0.049
2,MHM BONE,1.008 ± 0.009
3,VP229 BREAST,1 ± 0.11
4,SYO1 SYNOVIAL,0.39 ± 0.066
5,ZR751 BREAST,0.786 ± 0.074
6,KPD BONE,0.897 ± 0.075
7,SIHA CERVIX,1.04 ± 0.053
8,DU4475 BREAST,0.233 ± 0.071
9,BT549 BREAST,0.896 ± 0.087
10,COLO320DM LARGE INTESTINE,1.13 ± 0.12
11,T47D BREAST,0.892 ± 0.018
12,H23 LUNG,1 ± 0.034
13,NCIH441 LUNG,0.937 ± 0.032
14,HCT15 LARGE INTESTINE,1.01 ± 0.045
15,SCC90 HEADNECK,0.954 ± 0.029
16,MDAMB453 BREAST,1.07 ± 0.017
17,MG63 BONE,1.04 ± 0.022
18,A549 LUNG,0.963 ± 0.046
19,MDAMB468 BREAST,0.992 ± 0.039

# Same assay, conditions: 10 nM; exposure time: 5 days
row,Test System,surviving fraction
1,SUM149.B1*.S BREAST,0.931 ± 0.041
2,93VU HEADNECK,1.09 ± 0.06
3,LM7 BONE,0.818 ± 0.014
4,143B BONE,0.827 ± 0.013
5,SUM159 BREAST,0.964 ± 0.043
6,SUM149 BREAST,0.233 ± 0.025
7,MDAMB361 BREAST,0.856 ± 0.074
8,SAOS2 BONE,0.914 ± 0.055
9,ASKA SYNOVIAL,0.292 ± 0.007
10,HCC1395 BREAST,1.19 ± 0.11
11,HCC1954 BREAST,0.772 ± 0.058
12,CME SYNOVIAL,0.328 ± 0.037
13,VCAP PROSTATE,0.51 ± 0.028
14,YAMATO SYNOVIAL,0.7417 ± 0.0035
15,HCC202 BREAST,1.04 ± 0.49
16,HELA CERVIX,0.595 ± 0.031
17,SG27 HEADNECK,1.04 ± 0.059
18,CAL72 BONE,0.826 ± 0.045
19,MDAMB134 BREAST,0.9 ± 0.098

row,Test System,surviving fraction
1,C33A CERVIX,0.604 ± 0.045
2,SKBR3 BREAST,0.724 ± 0.16
3,MHM BONE,1.005 ± 0.0081
4,VP229 BREAST,0.931 ± 0.022
5,SYO1 SYNOVIAL,0.176 ± 0.05
6,ZR751 BREAST,0.846 ± 0.12
7,KPD BONE,0.909 ± 0.05
8,SIHA CERVIX,0.9867 ± 0.0011
9,DU4475 BREAST,0.139 ± 0.054
10,BT549 BREAST,0.378 ± 0.095
11,COLO320DM LARGE INTESTINE,1.09 ± 0.035
12,T47D BREAST,0.673 ± 0.064
13,H23 LUNG,0.629 ± 0.058
14,NCIH441 LUNG,0.799 ± 0.029
15,HCT15 LARGE INTESTINE,0.987 ± 0.02
16,SCC90 HEADNECK,1.06 ± 0.1
17,MDAMB453 BREAST,1.08 ± 0.044
18,MG63 BONE,1.03 ± 0.028
19,A549 LUNG,1.01 ± 0.032
